Experimental findings from patent US6423689B1, “Peptidyl calcium channel blockers” (Warner-Lambert Company, priority 1997, dated 2002) are described below.

The structures appear in SMILES notation.

What is called IC50 is the midpoint of a concentration-inhibition curve. For orientation: inhibition means the drop in the measured response relative to a control, in per cent. A high value points to a strong effect.

Assay [1] has as its target T1, N-type Ca2+ channels in superior cervical ganglion (SCG) neurons (Rattus norvegicus, UniProt Q02294).
T1 construct: from tissue
Briefly: Whole-cell voltage clamp, N-type Ca2+ current in SCG neurons. The format is cell-based. Particulars: for IC50: read-out: Inhibition of N-type Ca2+ Current IC50. Put shortly:
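Whole-cell voltage clamp of acutely trypsin-dissociated rat SCG neurons, with TEA/choline external solution (2 mM Ca2+) and Cs-methanesulfonate pipette solution. Currents evoked by 150 ms steps to +20 mV from −65 to −55 mV holding, every 40 s; compounds applied locally, effect as % inhibition of control amplitude.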

Assay [2] deals with T2, L-type Ca2+ channels in A10 cells (Rattus norvegicus, UniProt P22002).
T2 construct: which endogenously expresses L-type calcium channels; host or cells: A10 rat aortic smooth muscle cells
In words: Inhibition of L-type calcium flux in A10 cells (FLIPR). The format is cell-based. A general note: A change in cytosolic calcium serves as a functional read-out for many receptors and channels.

Assay [3] concerns Na+ channels in superior cervical ganglion (SCG) neurons. In words: Whole-cell voltage clamp, Na+ current in SCG neurons. Format: cell-based, rat. Put shortly:
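Percent inhibition of control amplitude at steady-state block is the read-out: peak inward Na+ current at 0 mV, sustained K+ current at +50 mV, 35 msec steps every 10 sec from −65 to −55 mV. Recordings used whole-cell clamp of trypsin-dissociated SCG neurons, pH 7.4 external and pipette solutions, compounds applied by local perfusion.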

T2 sequence (P22002 whole entry): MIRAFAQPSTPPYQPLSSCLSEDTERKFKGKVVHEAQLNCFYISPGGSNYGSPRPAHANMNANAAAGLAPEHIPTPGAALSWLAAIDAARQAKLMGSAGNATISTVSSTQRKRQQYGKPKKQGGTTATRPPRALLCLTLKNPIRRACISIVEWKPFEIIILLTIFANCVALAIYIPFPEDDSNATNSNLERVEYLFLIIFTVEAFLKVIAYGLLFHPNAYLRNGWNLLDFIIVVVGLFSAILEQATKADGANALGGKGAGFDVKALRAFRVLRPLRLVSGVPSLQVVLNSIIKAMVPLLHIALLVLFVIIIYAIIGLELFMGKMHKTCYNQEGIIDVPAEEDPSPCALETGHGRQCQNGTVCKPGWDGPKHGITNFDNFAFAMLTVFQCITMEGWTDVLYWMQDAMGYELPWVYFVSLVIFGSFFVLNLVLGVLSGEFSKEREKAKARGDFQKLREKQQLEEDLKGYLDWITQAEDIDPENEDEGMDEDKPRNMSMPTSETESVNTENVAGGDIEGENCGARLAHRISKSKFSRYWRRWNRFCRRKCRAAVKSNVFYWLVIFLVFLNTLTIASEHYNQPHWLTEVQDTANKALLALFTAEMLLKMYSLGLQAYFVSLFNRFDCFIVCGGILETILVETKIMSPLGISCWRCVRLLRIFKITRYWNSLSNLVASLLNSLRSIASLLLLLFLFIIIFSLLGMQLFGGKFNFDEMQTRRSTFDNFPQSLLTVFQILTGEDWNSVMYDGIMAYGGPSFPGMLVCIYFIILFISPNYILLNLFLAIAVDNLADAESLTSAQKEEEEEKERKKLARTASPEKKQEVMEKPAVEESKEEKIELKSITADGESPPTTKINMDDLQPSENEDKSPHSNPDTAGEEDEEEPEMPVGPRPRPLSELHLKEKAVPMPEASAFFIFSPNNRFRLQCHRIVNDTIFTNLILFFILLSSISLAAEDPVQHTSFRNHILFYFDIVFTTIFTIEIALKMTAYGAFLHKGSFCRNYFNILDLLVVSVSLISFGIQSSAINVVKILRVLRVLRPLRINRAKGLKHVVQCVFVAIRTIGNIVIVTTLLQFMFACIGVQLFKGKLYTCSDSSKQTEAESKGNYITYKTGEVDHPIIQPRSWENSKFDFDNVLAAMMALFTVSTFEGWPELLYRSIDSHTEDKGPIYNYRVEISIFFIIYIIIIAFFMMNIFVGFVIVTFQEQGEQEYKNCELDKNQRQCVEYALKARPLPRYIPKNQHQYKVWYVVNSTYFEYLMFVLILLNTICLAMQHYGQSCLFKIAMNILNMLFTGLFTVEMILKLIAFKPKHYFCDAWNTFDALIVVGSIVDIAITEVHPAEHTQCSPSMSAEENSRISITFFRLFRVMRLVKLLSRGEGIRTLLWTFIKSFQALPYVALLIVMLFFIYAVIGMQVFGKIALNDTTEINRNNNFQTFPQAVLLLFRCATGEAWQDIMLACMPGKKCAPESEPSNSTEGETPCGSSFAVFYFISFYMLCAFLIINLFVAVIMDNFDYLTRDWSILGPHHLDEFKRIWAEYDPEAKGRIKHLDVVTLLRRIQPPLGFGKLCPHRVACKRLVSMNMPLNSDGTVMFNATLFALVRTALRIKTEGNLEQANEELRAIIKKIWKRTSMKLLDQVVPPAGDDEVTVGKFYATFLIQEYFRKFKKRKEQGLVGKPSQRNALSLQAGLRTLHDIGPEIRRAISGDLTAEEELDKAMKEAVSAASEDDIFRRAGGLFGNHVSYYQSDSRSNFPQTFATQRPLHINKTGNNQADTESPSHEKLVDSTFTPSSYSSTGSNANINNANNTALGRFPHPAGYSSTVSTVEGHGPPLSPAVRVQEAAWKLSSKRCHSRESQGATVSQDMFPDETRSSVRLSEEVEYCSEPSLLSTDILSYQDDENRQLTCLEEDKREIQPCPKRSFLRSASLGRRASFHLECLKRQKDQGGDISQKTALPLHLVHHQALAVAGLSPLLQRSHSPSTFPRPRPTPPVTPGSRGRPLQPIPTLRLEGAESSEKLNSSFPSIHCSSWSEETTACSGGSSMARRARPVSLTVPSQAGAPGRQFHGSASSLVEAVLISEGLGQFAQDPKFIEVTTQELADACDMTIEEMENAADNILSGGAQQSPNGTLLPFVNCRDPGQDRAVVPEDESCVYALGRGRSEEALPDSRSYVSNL
T2 sequence (P54290 25-944 partner limits assumed): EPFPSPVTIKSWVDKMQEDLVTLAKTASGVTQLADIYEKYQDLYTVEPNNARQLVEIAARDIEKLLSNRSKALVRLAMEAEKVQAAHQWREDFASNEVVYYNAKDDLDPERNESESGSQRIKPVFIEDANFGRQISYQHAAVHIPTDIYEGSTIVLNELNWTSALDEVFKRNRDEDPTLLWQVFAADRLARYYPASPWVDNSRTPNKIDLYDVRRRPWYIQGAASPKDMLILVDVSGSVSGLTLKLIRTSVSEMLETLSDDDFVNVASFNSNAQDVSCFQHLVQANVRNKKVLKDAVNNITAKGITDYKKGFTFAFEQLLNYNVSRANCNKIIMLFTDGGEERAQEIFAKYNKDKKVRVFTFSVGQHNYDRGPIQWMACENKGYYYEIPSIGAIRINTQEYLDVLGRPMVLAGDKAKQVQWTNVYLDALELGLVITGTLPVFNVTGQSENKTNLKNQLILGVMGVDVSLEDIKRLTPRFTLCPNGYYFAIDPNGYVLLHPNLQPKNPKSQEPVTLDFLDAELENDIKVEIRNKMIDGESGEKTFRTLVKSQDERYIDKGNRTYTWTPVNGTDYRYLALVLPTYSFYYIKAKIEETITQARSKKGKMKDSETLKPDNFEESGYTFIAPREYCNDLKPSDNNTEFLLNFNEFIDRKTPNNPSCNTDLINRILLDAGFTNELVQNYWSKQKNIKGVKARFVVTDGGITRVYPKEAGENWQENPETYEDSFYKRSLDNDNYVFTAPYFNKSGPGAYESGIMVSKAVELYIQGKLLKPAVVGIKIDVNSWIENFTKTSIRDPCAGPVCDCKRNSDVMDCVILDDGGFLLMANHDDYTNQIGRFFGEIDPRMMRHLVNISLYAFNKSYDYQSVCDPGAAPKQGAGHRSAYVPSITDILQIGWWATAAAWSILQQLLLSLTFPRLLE
T2 sequence (P54290 945-1091 partner limits assumed): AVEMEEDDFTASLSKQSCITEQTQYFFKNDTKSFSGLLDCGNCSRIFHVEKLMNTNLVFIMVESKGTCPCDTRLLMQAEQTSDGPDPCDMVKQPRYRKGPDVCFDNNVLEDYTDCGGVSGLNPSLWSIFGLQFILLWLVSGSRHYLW
T2 sequence (P54287 whole entry partner): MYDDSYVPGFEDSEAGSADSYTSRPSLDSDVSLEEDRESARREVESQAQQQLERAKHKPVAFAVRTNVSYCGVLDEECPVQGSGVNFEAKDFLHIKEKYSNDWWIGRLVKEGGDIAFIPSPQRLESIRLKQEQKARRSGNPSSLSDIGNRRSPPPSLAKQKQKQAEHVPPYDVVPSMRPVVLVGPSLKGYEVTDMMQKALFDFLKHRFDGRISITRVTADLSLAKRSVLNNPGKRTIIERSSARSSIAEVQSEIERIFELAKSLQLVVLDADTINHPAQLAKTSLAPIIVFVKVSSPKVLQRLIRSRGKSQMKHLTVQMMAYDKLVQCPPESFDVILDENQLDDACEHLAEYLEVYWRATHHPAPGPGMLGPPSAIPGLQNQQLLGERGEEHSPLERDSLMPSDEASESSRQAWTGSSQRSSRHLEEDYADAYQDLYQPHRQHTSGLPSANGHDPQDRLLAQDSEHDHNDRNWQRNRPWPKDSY

For `CC(C)(C)OC(=O)[C@H](Cc1ccc(OCc2ccccc2)cc1)NC(=O)CNC(=O)N1CCCCCC1` (stereo in doubt) [Example 8, [S-(R*,R*)]-2-{2-[(Azepane-1-carbonyl)-amino]-acetylamino}-3-(4-benzyloxy-phenyl)-propionic acid tert-butyl ester], the “Inhibition of N-type Ca2+ Current, % Inhibition at 10 μM” value in assay [1] (10 μM) was determined as 86%. The values for the IC50 in assay [1] and in assay [2] were 1920 nM and 180 nM, respectively. For the same compound, the “Inhibition of Na+ Current, % Inhibition at 10 μM” value in assay [3] is reported as 43%.
`CC(C)C[C@H](NC(=O)N1CCCCCC1)C(=O)N[C@@H](Cc1ccc(OCc2ccccc2)cc1)C(=O)OC(C)(C)C` [Example 1] yielded an inhibition at 10 µM in assay [1] (10 μM) of 68%. The results for the IC50 in assay [1], in assay [2] and in assay [3] (read-out: Inhibition of Na+ Current IC50) were 1270 nM, 1720 nM and 14000 nM, respectively. The “Inhibition of Na+ Current, % Inhibition at 10 μM” value in assay [3] was determined as 28%.
Compound `CC(C)(C)OC(=O)[C@H](Cc1ccc(OCc2ccccc2)cc1)NC(=O)[C@H](Cc1ccccc1)NC(=O)N1CCCCCC1` [Example 16] gave an inhibition at 10 µM in assay [1] (10 μM) of 19%. Also, the IC50 in assay [2] came to 280 nM. Moreover, the “Inhibition of Na+ Current, % Inhibition at 10 μM” value in assay [3] amounted to 38%.
In assay [1] (10 μM), `CC(C)C[C@H](NC(=O)N1CCCCCC1)C(=O)N[C@@H](Cc1ccc(OCc2ccccc2)cc1)C(N)=O` [Example 21, [S-(R*,R*)]-Azepane-1-carboxylic acid {1-[2-(4-benzyloxy-phenyl)-1-carbamoyl-ethylcarbamoyl]-3-methyl-butyl}-amide] showed an inhibition at 10 µM of 45%. Also, in assay [2], the IC50 stood at 1600 nM. The “Inhibition of Na+ Current, % Inhibition at 10 μM” value in assay [3] worked out at 16%.
`CC(C)C[C@H](NC(=O)N1CCCCCC1)C(=O)N[C@@H](Cc1ccc(OCc2ccccn2)cc1)C(=O)OC(C)(C)C` [Example 25, [S-(R*,R*)]-2-{2-[(Azepane-1-carbonyl)-amino]-4-methyl-pentanoylamino}-3-[4-(pyridin-2-ylmethoxy)-phenyl]-propionic acid tert-butyl ester] displayed an inhibition at 10 µM in assay [1] (10 μM) of 66%. The results for the IC50 in assay [1] and in assay [2] were 5330 nM and 1700 nM, respectively. The “Inhibition of Na+ Current, % Inhibition at 10 μM” value in assay [3] is 16%.
Compound `CC(C)C[C@H](NC(=O)N1CCCCCC1)C(=O)N[C@@H](Cc1ccc(OCc2ccncc2)cc1)C(=O)OC(C)(C)C` [Example 26, [S-(R*,R*)]-2-{2-[(Azepane-1-carbonyl)-amino]-4-methyl-pentanoylamino}-3-[4-(pyridin-4-ylmethoxy)-phenyl]-propionic acid tert-butyl ester] registered an inhibition at 10 µM in assay [1] (10 μM) of 58%. Moreover, in assay [2], the half-inhibitory concentration (IC50) was 3000 nM. In addition, the “Inhibition of Na+ Current, % Inhibition at 10 μM” value in assay [3] was 13%.
In the case of `CC(C)C[C@H](NC(=O)N1CCCCCC1)C(=O)N[C@@H](Cc1ccc(C#CC2(O)CCCCC2)cc1)C(=O)NC(C)(C)C` [Example 138, [S-(R*,R*)]-Azepane-1-carboxylic acid (1-({-tert-butylcarbamoyl-2-[4-(1-hydroxy-cyclohexylethynyl)-phenyl]-ethylcarbamoyl}-3-methyl-butyl)-amide], 10 µM produced 17% inhibition in assay [1] (10 μM). Further, in assay [2], the IC50 was 1600 nM. The “Inhibition of Na+ Current, % Inhibition at 10 μM” value in assay [3] is recorded as 31%.
In turn, `CC(C)C[C@H](NC(=O)N1CCCCCC1)C(=O)N[C@@H](Cc1ccc(C=Cc2ccccc2)cc1)C(=O)NC(C)(C)C` [Example 141, [S-(R*,R*)]-Azepane-1-carboxylic acid {1-[1-tert-butylcarbamoyl-2-(4-styryl-phenyl)-ethylcarbamoyl]-3-methyl-butyl}-amide] returned an inhibition at 10 µM in assay [1] (10 μM) of 39%. In assay [2], the IC50 was 410 nM. Also, in assay [3], the “Inhibition of Na+ Current, % Inhibition at 10 μM” value came out at 18%.
Consider `CC(C)C[C@H](NC(=O)N1CCCCCC1)C(=O)N[C@@H](Cc1ccc(OCc2ccccc2)cc1)C(=O)NCCCn1ccnc1` [Example 237, [S-(R*,R*)]-Azepane-1-carboxylic acid {(1-[2-(4-benzyloxy phenyl)-1-(3-imidazol-1-yl-propylcarbamoyl)-ethylcarbamoyl]-3-methyl-butyl}-amide], for which, in assay [1] (10 μM), testing at 10 µM gave an inhibition of 79%. The IC50 in assay [2] worked out at 2200 nM.
